Experimental data from ChEMBL document CHEMBL5131532, “Synthesis and Evaluation of Small Molecule Disruptors of the Aha1/Hsp90 Complex for the Reduction of Tau Aggregation” (ACS Med Chem Lett, 2022).
Calls of active or inactive are those of the source. No cut-off for these calls is given here.

Columns and labels:
[1] = Disruption of recombinant GST-tagged human Aha1/His6-tagged full length human Hsp90alpha protein-protein interaction expressed in Escherichia coli incubated for 4 hrs by AlphaLisa assay
[2] = tested on: SH-SY5Y; assay: Disruption of Aha1/Hsp90 alpha protein-protein interaction in human SH-SY5Y cells lysate at 10 uM incubated for 24 hrs by co-immunoprecipitation assay; format: subcellular
[3] = tested on: SK-BR-3; assay: Disruption of Aha1/Hsp90 protein-protein interaction in human SK-BR-3 cells lysate at 10 uM incubated for 24 hrs by co-immunoprecipitation assay; format: subcellular
[4] = species: Homo sapiens; assay: Disruption of recombinant human Aha1/Hsp90 alpha protein-protein interaction expressed in Escherichia coli […] assessed as inhibition of recombinant human P301L tau aggregation incubated for 30 mins by ThT fluorescence assay

SMILES | IC50 [1] | further results
COC(=O)c1cccc(NC(=O)c2ccc(OC)c(-c3cccc(OC)c3)c2)c1 | > 10 µM | –
COc1cccc(-c2cc(C(=O)Nc3ccc(Cl)cc3)ccc2OC)c1 | 6.03 µM | –
COc1cccc(-c2cc(C(=O)Nc3ccc(F)cc3)ccc2OC)c1 | 6.32 µM | –
COc1cccc(-c2cc(C(=O)Nc3ccc(OC)cc3OC)ccc2OC)c1 | 9.53 µM | –
COc1ccc(-c2cc(OC)ccc2C(=O)Nc2ccc(C(F)(F)F)cc2)cc1 | > 10 µM | –
COc1ccc(NC(=O)c2ccc(OC)c(-c3cccc(OC)c3)c2)cc1 | > 10 µM | –
COc1ccc(C(=O)Nc2ccc(C(F)(F)F)cc2)c(-c2ccc(Cl)c(Cl)c2)c1 | > 10 µM | –
COc1cccc(-c2cc(C(=O)Nc3ccc([N+](=O)[O-])cc3)ccc2OC)c1 | 4.04 µM | –
COc1cccc(-c2cc(C(=O)Nc3ccc(C#N)cc3)ccc2OC)c1 | 8.57 µM | –
COc1cccc(-c2cc(C(=O)Nc3cccc(Cl)c3Cl)ccc2OC)c1 | > 10 µM | –
COc1cccc(-c2cc(C(=O)Nc3cccc(Cl)c3)ccc2OC)c1 | > 10 µM | –
COc1ccc(C(=O)Nc2ccc(C(F)(F)F)cc2)c(-c2ccc(Cl)c(C(F)(F)F)c2)c1 | > 10 µM | –
COc1cc(NC(=O)c2ccc(OC)c(-c3cccc(OC)c3)c2)cc(OC)c1 | > 10 µM | –
COc1cccc(-c2cc(C(=O)Nc3ccccc3)ccc2OC)c1 | > 10 µM | –
COc1cccc(-c2cc(C(=O)Nc3ccc(Cl)cc3Cl)ccc2OC)c1 | > 10 µM | –
COC(=O)c1ccc(NC(=O)c2ccc(OC)c(-c3cccc(OC)c3)c2)cc1 | > 10 µM | –
COc1cccc(-c2cc(C(=O)Nc3ccccc3Cl)ccc2OC)c1 | > 10 µM | –
COc1cccc(-c2cc(-c3nnnn3-c3ccc(C(F)(F)F)cc3)ccc2OC)c1 | 3.32 µM | Activity [4]: Active; Activity [2]: Active; Activity [3]: Active
COc1cccc(-c2cc(C(=O)Nc3cccc([N+](=O)[O-])c3)ccc2OC)c1 | > 10 µM | –

The next lines start with results.

IC50 [1] | SMILES | further results
9.05 µM | COc1ccc(C(=O)Nc2ccc(C(F)(F)F)cc2)cc1-c1c(OC)cccc1OC | –
9.65 µM | COc1ccccc1-c1cc(C(=O)Nc2ccc(C(F)(F)F)cc2)ccc1OC | –
> 10 µM | COc1ccc(C(=O)Nc2ccc(C(F)(F)F)cc2)c(-c2ccccc2)c1 | –
> 10 µM | COc1ccc(C(=O)Nc2ccc(C(F)(F)F)cc2)cc1-c1ccccc1 | –
> 10 µM | COc1cccc(-c2cc(C(=O)Nc3ccc(O)cc3)ccc2OC)c1 | –
4.83 µM | COc1cccc(-c2cc(C(=O)Nc3ccc(C(F)(F)F)cc3)ccc2OC)c1 | Activity [2]: Active; Activity [3]: Active
> 10 µM | COc1ccc(C(=O)Nc2ccc(C(F)(F)F)cc2)c(-c2ccc(O)cc2)c1 | –
> 10 µM | COc1ccc(C(=O)Nc2ccc(C(F)(F)F)cc2)cc1-c1ccc(Cl)cc1 | –
> 10 µM | COc1ccc(C(=O)Nc2ccc(C(F)(F)F)cc2)cc1-c1cccc(OC)c1OC | –
6.39 µM | COc1ccc(C(=O)Nc2ccc(C(F)(F)F)cc2)cc1-c1ccc(O)cc1 | –
> 10 µM | COc1ccc(C(=O)Nc2ccc(C(F)(F)F)cc2)c(-c2ccc(Cl)cc2)c1 | –
> 10 µM | COc1ccc(C(=O)Nc2ccc(C(F)(F)F)cc2)cc1-c1cccc(Cl)c1 | –
> 10 µM | COc1ccc(C(=O)Nc2ccc(C(F)(F)F)cc2)cc1-c1ccc(Cl)c(Cl)c1 | –
> 10 µM | COc1ccc(-c2cc(C(=O)Nc3ccc(C(F)(F)F)cc3)ccc2OC)cc1 | –
> 10 µM | COc1ccc(C(=O)Nc2ccc(C(F)(F)F)cc2)cc1-c1ccccc1O | –
> 10 µM | COc1ccc(C(=O)Nc2ccc(C(F)(F)F)cc2)cc1-c1cccc(C(F)(F)F)c1 | –
> 10 µM | COc1ccc(C(=O)Nc2ccc(C(F)(F)F)cc2)cc1-c1cccc(CO)c1 | –
3.36 µM | COc1ccc(C(=O)Nc2ccc(C(F)(F)F)cc2)cc1-c1cccc(N(C)C)c1 | Activity [4]: Active; Activity [2]: Active; Activity [3]: Active
> 10 µM | COc1ccc(C(=O)Nc2ccc(C(F)(F)F)cc2)cc1-c1cccc(F)c1 | –
> 10 µM | COc1cccc(-c2cc(OC)ccc2C(=O)Nc2ccc(C(F)(F)F)cc2)c1 | –
> 10 µM | COc1ccc(C(=O)Nc2ccc(C(F)(F)F)cc2)cc1-c1ccc(C(F)(F)F)cc1 | –
> 10 µM | COc1ccc(C(=O)Nc2ccc(C(F)(F)F)cc2)cc1-c1ccc(Cl)c(C(F)(F)F)c1 | –
> 10 µM | COc1ccc(C(=O)Nc2ccc(C(F)(F)F)cc2)cc1-c1cccc(O)c1 | –
7.23 µM | COc1ccc(C(=O)Nc2ccc(C(F)(F)F)cc2)cc1-c1cccc(N)c1 | –
> 10 µM | COc1ccc(C(=O)Nc2ccc(C(F)(F)F)cc2)c(-c2ccccc2OC)c1 | –
> 10 µM | COc1ccc(C(=O)Nc2ccc(C(F)(F)F)cc2)c(-c2cccc(O)c2)c1 | –
